Assay results as given in patent US8227207B2, “Bioactive peptides derived from the proteins of egg white by means of enzymatic hydrolysis” (Consejo Superior de Investigaciones Cientifcas, priority 2004, dated 2012).
Entries after “also recorded” stand apart in the source; their conditions may differ. Residues, ends and D or L forms follow the SMILES beside them.

Tested on: spontaneously hypertensive rats (SHR)
Test: Antihypertensive activity: systolic arterial pressure (tail cuff) in spontaneously hypertensive rats
Assay type: in vivo, rat
Protocol: The effect is studied of various identified peptides and of some products containing them (for example egg white hydrolysed with pepsin for 3 hours and the fraction of it less than 3000 Da) on the arterial pressure of spontaneously hypertensive rats (SHR) and Wistar-Kyoto rats (WKY) which are the normotense controls for the SHR.
This study is conducted with SHR (10) and WKY of 17-24 weeks old and weight between 300 and 350 g, coming from Charles River Laboratories España, S. A. The rats are kept in cages of five by five and maintained at a stable temperature of 25° C. with light-dark cycles of 12 hours, ingesting freely available water and food. In order to carry out the measurement of systolic arterial pressure (SAP) “tail cuff” equipment is used (Le5001, Letica) which automatically provides a digital value of the SAP and records and facilitates the cardiac frequency of the animals. Various measurements are made and the average of all of them is obtained in order to achieve a reliable value of the SAP. Before positioning the cuff and transducer in the tail of the rats, the rats are exposed to a temperature of close to 30° C. in order to facilitate dilation of the caudal artery. Also, in order to ensure the reliability of the measurement, the animals are made to get used to the procedure for two weeks prior to conducting each assay in question.
The administration of the products to be assayed is done by means of an intragastric probe in a time margin of between 9 and 10 o'clock in the morning. The SHR used for the study had SAP values of between 230 and 280 mm Hg. The WKY used for the study at that moment had SAP values of between 160 and 200 mm Hg. Measurements of the SAP were taken from the animals periodically, every 2 hours, up to 8 hours post-administration of the products to be assayed; in addition, a SAP measurement was taken 24 hours after the administration of those products. As negative control (in order to establish the circadian variation of the SAP in probed rats) the measurements of the SAP obtained in rats which had been administered 1 ml of water by means of intragastric probe were used. As positive control, the measurements of the SAP obtained in rats which had been administered 50 mg/kg of Captopril (prototype ACEI drug) by means of intragastric probe were used. This dose of Captopril was administered to each rat in a volume of 1 ml. In order to establish the effect of the unhydrolysed egg white on the arterial pressure of the animals, similar assays to those described above were conducted, in which the animals were treated by the same procedure with 200 mg/kg of previously freeze-dried egg white (reference).
The results obtained are grouped and the mean±the standard error of measurement (SEM) is obtained for a minimum of 9 homogenous assays. The data of the treated animals are always compared with the data deemed to be a negative control. In order to compare them and obtain the statistical significance, Student's t-test for unpaired data is used and the difference for values of p<0.05 is considered significant.

## CC[C@H](C)[C@H](NC(=O)[C@@H]1CCCN1C(=O)[C@H](Cc1ccc(O)cc1)NC(=O)[C@H](CCCNC(=N)N)NC(=O)[C@H](CCC(=O)O)NC(=O)[C@H](CCC(=O)O)NC(=O)[C@H](C)NC(=O)[C@@H](N)Cc1ccc(O)cc1)C(=O)N[C@@H](CC(C)C)C(=O)O [SEQ. ID. N^o 6] (H-YAEERYPIL-OH; N-terminus and C-terminus assumed)
Intragastric probe
  time of maximum drop in SAP after administration: 6 h
Single administration by intragastric probe
  drop in systolic arterial pressure (SAP) / anti-hypertensive activity (in words): possess anti-hypertensive activity; also recorded: significant dose-dependent drop in the SAP; also recorded: clear and pronounced anti-hypertensive effect; also recorded: display anti-hypertensive activity
